Legend:
[1] = test system: STZ-treated mice; assay: Intraperitoneal glucose tolerance test on STZ-treated mice treated with IGF-2; format: in vivo
Experimental: In this experiment, four STZ-treated mice were treated with 12,000 μg/kg/day of IGF-2 (four injections of 3000 μg/kg/day) 5 days and two mice were treated for 10 days. A glucose tolerance test was performed 50 days post-treatment with IGF-2 by challenging the treated mice with a 2 grams/kg dose of glucose and determining the blood glucose level over a 180 minute time course. The blood glucose curves of the treated mice were compared to results for a saline control, and normal (nondiabetic) obese and normal (nondiabetic) lean mice based on published literature (Jorgensen et al., J. Am Assoc. Lab. Animal Sci 2017 56 (1): 95-97).

[2] = test system: STZ-treated mice; assay: Pancreas histology and insulin immunohistochemistry in STZ-treated mice; format: in vivo
Experimental: FIG. 21 depicts pancreas histology results on STZ-treated mice. […] The non-control mice were treated once a day for 10 days with a 3000 μg/kg dose of IGF-2. The mice were sacrificed on day 35 and pancreas cells were assessed as being insulin positive or negative.

[3] = test system: db/db mice; assay: Serum insulin in db/db mice after long-term IGF-2 treatment; format: in vivo; details: 12,000 μg/kg daily for 68 days, measured 6.5 weeks after end of treatment
Experimental: In this experiment, one group of db/db mice (labeled FA X1) was injected with 3000 μg/kg of IGF-2 once a day for 68 days, a second group of db/db mice (labeled FA X4) was injected with a daily dose of 12000 μg/kg of IGF-2 divided in two injections per day for 68 days, and a third group of db/db mice was injected with saline. Serum insulin levels were measured 6.5 weeks after the end of the 68 day treatment. Treatment with the 12,000 μg/kg daily dose increased serum insulin levels by about 50% with respect to the control.

[4] = test system: db/db mice; assay: Histopathology and immunohistochemistry of pancreas islet cells in db/db mice treated with IGF-2; format: in vivo
Experimental: FIG. 27 provides results of histopathology and immunohistochemical studies showing the number of pancreas islet cells that test positive for insulin (left panel) and glucagon (right panel) in db/db mice. In this experiment, one group of db/db mice was injected with 12000 μg/kg of IGF-2 on each of 70 consecutive days, a second group of db/db mice was injected with saline, and a third group of db/db mice was a naïve control group. The mice were sacrificed for pathology 70 days after the end of the initial 70 day treatment.
In this experiment, one group of db/db mice (labeled X4) was injected with 12000 μg/kg of IGF-2 on each of 70 consecutive days, a second group of db/db mice (labeled X1) was injected with 3000 μg/kg of IGF-2 on each of 70 consecutive days, and a third group of db/db mice (labeled control) was injected with saline. The mice were sacrificed for pathology 70 days after the end of the initial 70 day treatment. […] The control panels show a positive stain for insulin, which increases in intensity in the 3000 μg/kg/day mice, and increases again in intensity in the 12,000 μg/kg/day mice.

[5] = test system: β-MIN6 cells; assay: Insulin secretion of β-MIN6 cells following glucose induction; format: cell-based, mouse; details: IGF-2 5 nM, 20 nM, 80 nM, 1 week treatment
Description: β-MIN6 cells serve as an in vitro model of mouse pancreatic islets. β-MIN6 cells were used as an in vitro model to measure the effects of treatment with IGF-2.

[6] = test system: STZ-treated mouse islets; assay: MTT viability of STZ-treated mouse islets; format: cell-based; details: increasing concentrations
Description: Yellow dye MTT is converted to a purple dye by mitochondrial reductase in viable cells. Therefore, the amount of purple dye present determined by measuring optical density of cells at 570 nm serves as a measurement of cell viability.

With insulin-like growth factor 2 [IGF-2] the “Response to the glucose tolerance test (permanently cured mice)” value ([1]; 12,000 μg/kg/day for 5 or 10 days, test 50 days post-treatment, 2 grams/kg glucose, 180 minutes) was “fell between the glucose tolerance results from the literature for non-diabetic obese mice and non-diabetic lean mice”, the “Glucose levels in the glucose tolerance test (Mouse 01, not permanently cured)” value ([1]; 12,000 μg/kg/day, test 50 days post-treatment, 2 grams/kg glucose) was “higher than the normal obese mouse” and the “Number of IGF-2-treated mice permanently cured” value ([1]; six STZ mice treated with 12,000 μg/kg/day, four for 5 days and two for 10 days) was “Five”. The “Level of insulin in pancreas islets compared to a naïve mouse (IHC)” value ([2]; non-permanently cured mouse) was “lower level of insulin in its pancreas islets”, the “Increase in the number of functional beta cells” value ([2]; permanently cured mice, 3000 μg/kg once a day for 10 days, sacrificed on day 35) was “four” and the “Level of insulin in pancreas islets compared to a naïve mouse (IHC)” value ([2]; permanently cured mouse) was “higher level of insulin in its pancreas islets”. The “Increase in serum insulin levels with respect to the control” value [3] was “about 50%”, the “Increase in the number of insulin-positive cells” value ([4]; 12000 μg/kg on 70 consecutive days, sacrificed 70 days after end of treatment) was “more than 50%” and the “Insulin positive cells (immunohistochemical staining)” value ([4]; 3000 and 12000 μg/kg on 70 consecutive days) was “increase in insulin positive cells in a dose-dependent manner”. The “Insulin secretion following glucose induction” value [5] was “increases insulin secretion (following glucose induction) in a dose-dependent manner” and the “Mouse islet viability (MTT, optical density at 570 nm)” value [6] was “increased in a dose dependent manner”.

— patent publication US20260151457A1, “Peptides and Fragments for Treating Diabetes and Associated Metabolic Diseases” (Betavive Ltd., priority 2024, published 2026)
